Results from ChEMBL document CHEMBL1201862, “PubChem BioAssay data set” (2004).
Activity calls are given as the source filed them.

Assays:
[1] = molecular target: Delta-type opioid receptor (Homo sapiens, UniProt P41143); test: Counterscreen for agonists of heterodimerization of the mu 1 (OPRM1) and delta 1 (OPRD1) opioid receptors: Luminescence-based cell-based high throughput dose response assay to identify agonists of OPRD1 homodimerization. [Related pubchem assays (depositor defined):AID504326, AID504355, AID504692, AID504904, AID504905]; format: functional
[2] = molecular target: Mu-type opioid receptor (Homo sapiens, UniProt P35372); test: Counterscreen for agonists of heterodimerization of the mu 1 (OPRM1) and delta 1 (OPRD1) opioid receptors: Luminescence-based cell-based high throughput dose response assay to identify agonists of OPRM1 homodimerization.; format: functional;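 further: U2OS cells expressing OPRM1 and beta-arrestin as split beta-galactosidase partners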
[3] = molecular target: 5-hydroxytryptamine receptor 5A (Homo sapiens, UniProt P47898); test: Counterscreen for agonists of OPRM1-OPRD1 heterodimerization: luminescence-based cell-based high throughput dose response assay to identify agonists of 5-hydroxytryptamine (serotonin) 5A receptor (HTR5A). [Related pubchem assays (depositor defined):AID504326, AID504355, AID504692, AID504904, AID504905]; format: functional
[4] = molecular target: T1, Cytochrome P450 3A4 (Homo sapiens, UniProt P08684);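 further: CYP3A4 tested as one member of a cytochrome P450 panel screen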
[5] = molecular target: T2, Short transient receptor potential channel 4 (Mus musculus, UniProt Q9QUQ5); test: mouse TRPC4 channel activators, dose response, cell-based, HEK293 TRPC4/mu-opioid, Fluo-4 calcium (AID 434937); format: functional
T2 sequence (Q9QUQ5 whole entry): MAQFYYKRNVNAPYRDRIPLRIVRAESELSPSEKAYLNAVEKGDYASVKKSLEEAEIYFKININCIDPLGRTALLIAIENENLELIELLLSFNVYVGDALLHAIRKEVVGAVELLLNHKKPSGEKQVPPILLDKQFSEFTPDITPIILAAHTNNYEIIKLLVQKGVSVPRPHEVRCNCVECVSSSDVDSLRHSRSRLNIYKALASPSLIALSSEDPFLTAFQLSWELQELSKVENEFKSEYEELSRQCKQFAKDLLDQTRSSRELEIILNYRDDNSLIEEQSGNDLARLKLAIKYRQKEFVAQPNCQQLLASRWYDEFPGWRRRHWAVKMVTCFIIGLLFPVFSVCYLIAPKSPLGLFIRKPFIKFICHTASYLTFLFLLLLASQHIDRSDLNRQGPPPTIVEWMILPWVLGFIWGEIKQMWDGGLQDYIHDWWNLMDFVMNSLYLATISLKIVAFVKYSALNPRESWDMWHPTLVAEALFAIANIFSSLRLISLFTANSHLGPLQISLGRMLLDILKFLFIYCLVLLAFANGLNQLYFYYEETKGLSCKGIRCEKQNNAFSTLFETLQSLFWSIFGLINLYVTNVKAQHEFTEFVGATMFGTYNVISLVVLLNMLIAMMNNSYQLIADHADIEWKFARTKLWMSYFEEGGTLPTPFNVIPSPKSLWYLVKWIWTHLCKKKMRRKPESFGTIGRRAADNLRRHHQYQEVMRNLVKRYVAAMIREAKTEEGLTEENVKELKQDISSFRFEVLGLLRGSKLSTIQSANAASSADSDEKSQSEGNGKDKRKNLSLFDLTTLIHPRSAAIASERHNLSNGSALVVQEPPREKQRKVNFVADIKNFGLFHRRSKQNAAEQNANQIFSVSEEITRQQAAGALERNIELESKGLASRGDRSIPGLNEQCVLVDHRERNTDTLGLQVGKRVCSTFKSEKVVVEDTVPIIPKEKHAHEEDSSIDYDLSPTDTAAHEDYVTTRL

[6] = molecular target: Cytochrome P450 2D6 (Homo sapiens, UniProt P10635);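 further: CYP2D6 member of a cytochrome P450 panel assay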
[7] = molecular target: Cytochrome P450 2C19 (Homo sapiens, UniProt P33261); test: Cytochrome panel assay with activity outcomes. Panel member name: p450-cyp2c19 Compounds with AC50 equal or less than 10 uM are considered active; format: functional
[8] = molecular target: T3, Cytochrome P450 1A2 (Homo sapiens, UniProt P05177);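 further: PubChem cytochrome P450 panel assay, CYP1A2 panel member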
T3 sequence (P05177 whole entry): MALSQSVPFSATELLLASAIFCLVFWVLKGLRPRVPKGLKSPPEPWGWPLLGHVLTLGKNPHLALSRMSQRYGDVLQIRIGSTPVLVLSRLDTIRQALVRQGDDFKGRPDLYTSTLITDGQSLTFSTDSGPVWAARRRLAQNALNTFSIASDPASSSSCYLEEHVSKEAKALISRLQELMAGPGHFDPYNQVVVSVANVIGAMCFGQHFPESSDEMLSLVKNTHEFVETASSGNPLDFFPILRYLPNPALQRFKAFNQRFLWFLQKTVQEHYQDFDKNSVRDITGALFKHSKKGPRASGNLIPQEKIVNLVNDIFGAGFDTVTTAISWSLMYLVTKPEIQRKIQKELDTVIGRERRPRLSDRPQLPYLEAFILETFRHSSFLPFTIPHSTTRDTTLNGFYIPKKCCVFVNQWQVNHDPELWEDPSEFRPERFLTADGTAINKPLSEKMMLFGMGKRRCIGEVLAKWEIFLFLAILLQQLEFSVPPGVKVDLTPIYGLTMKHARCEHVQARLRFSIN

[9] = molecular target: T1, Cytochrome P450 3A4; remark: listed apart in the source
[10] = test system: Escherichia coli; test: microbe, parasite or virus in culture

Cytochrome P450 2D6, sequence (P10635 whole entry): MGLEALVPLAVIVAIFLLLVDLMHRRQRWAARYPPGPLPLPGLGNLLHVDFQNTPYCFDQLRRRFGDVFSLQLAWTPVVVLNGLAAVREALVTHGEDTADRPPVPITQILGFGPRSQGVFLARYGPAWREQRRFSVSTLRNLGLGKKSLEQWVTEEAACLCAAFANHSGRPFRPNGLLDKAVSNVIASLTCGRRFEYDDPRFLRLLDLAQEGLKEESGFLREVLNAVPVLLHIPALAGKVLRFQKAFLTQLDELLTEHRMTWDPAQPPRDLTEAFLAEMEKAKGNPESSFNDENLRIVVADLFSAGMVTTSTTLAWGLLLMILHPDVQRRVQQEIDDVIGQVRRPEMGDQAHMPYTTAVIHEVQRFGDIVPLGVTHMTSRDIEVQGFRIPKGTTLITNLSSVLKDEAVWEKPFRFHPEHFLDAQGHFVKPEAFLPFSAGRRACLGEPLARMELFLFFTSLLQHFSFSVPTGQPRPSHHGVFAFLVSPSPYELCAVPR
Cytochrome P450 2C19, sequence (P33261 whole entry): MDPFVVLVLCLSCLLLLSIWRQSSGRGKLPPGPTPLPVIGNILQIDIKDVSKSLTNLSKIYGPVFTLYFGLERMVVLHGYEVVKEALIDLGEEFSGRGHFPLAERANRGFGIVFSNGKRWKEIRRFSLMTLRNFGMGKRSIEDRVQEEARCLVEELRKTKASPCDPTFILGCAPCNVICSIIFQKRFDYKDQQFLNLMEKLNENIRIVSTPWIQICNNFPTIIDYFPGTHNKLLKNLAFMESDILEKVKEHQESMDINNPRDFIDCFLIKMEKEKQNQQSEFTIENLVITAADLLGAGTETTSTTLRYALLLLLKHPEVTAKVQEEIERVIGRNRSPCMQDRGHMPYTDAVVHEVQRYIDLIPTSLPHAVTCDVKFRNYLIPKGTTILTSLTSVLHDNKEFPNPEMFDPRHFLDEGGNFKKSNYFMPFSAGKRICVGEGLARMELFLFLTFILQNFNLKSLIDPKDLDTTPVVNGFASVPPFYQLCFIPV
Mu-type opioid receptor, sequence (P35372 whole entry): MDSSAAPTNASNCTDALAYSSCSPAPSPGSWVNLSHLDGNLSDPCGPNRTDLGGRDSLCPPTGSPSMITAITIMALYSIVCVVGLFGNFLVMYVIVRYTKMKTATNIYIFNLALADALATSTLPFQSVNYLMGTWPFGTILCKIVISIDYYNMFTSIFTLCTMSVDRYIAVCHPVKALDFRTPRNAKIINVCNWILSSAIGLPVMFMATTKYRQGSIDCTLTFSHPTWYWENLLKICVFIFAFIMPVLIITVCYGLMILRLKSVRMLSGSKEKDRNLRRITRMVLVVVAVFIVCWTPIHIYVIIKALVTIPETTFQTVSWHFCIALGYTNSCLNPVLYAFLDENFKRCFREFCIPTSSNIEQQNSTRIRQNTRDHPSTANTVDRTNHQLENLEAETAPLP
T1 sequence (P08684 whole entry): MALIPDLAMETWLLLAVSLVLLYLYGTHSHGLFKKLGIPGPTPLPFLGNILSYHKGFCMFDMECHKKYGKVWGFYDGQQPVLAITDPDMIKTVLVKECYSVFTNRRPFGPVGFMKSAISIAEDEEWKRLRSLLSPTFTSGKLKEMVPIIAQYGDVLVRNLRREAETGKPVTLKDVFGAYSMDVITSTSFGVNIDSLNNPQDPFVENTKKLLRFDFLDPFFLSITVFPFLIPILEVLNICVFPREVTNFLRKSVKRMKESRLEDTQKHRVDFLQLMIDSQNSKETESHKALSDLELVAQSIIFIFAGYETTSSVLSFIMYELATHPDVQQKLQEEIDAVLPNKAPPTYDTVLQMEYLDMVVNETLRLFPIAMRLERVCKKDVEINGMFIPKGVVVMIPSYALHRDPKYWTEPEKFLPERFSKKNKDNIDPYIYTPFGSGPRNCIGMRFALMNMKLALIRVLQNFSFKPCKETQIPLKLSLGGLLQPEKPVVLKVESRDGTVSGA
5-hydroxytryptamine receptor 5A, sequence (P47898 whole entry): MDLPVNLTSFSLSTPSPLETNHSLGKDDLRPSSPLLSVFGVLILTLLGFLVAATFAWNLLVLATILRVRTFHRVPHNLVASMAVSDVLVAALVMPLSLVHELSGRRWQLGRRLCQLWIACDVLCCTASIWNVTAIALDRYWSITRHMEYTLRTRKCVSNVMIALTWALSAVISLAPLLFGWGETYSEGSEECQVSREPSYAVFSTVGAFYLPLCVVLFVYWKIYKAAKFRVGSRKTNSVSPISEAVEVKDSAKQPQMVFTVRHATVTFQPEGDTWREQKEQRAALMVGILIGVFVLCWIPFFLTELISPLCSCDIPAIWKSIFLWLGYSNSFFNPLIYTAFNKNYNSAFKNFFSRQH
Delta-type opioid receptor, sequence (P41143 whole entry): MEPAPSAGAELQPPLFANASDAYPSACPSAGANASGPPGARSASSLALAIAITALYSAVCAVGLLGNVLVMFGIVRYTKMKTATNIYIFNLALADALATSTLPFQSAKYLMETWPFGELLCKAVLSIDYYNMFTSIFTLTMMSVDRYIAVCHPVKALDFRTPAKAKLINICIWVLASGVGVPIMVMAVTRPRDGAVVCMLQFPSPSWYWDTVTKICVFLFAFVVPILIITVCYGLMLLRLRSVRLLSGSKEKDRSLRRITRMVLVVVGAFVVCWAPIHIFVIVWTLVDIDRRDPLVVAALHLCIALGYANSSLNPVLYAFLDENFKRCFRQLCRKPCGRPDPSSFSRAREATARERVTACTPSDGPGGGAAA

## Cc1cccc(NC(=S)NC(=O)CCc2ccccc2)c1
[1]
  EC50: > 92.5 µM (inactive)
[2]
  EC50: > 92.5 µM (inactive)
[3]
  EC50: > 92.5 µM (inactive)
[4]
  AC50: 25.1 µM (inconclusive)

## COc1ccc(C(CNc2ncnc3sc(C)c(C)c23)N(C)C)cc1 (centres undefined)
[5]
  EC50: 0.473 µM (active)
[1]
  EC50: 70.5 µM (inactive)
[2]
  EC50: > 92.4 µM (inactive)
[3]
  EC50: > 92.4 µM (inactive)

## CCOc1cc(CNCCO)c(Cl)cc1OCC(=O)NCCc1ccccc1
[6]
  AC50: inconclusive

## O=C(O)CCC(=O)Nc1ccc(C(=O)N2CCCCC2)cc1
[7]
  AC50: inconclusive
[6]
  AC50: inconclusive

## COc1ccc(C(C)=O)c(OC(=O)c2ccco2)c1
[7]; read-out: AC50
  AC50: 7.94 µM (inconclusive)
[6]
  AC50: inconclusive

## CC(C)n1nnc2ccccc2c1=O
[7]; read-out: AC50
  AC50: 39.8 µM (inconclusive)
[8]
  AC50: 11.2 µM (inconclusive)
[6]
  AC50: inconclusive
[9]
  AC50: inconclusive

## COc1cc2c3c(c1OC)Oc1ccc(cc1)C[C@H]1c4c(cc(OC)c(OC)c4Oc4ccc(cc4)C[C@@H]3N(C)CC2)CCN1C
[10]
  AC50: 25.2 µM (active)

## O=C(COC(=O)/C=C/c1ccc(F)cc1)Nc1nnc(-c2ccccc2)o1
[10]
  AC50: 23.2 µM (active)
